IC50 data for 32 molecules are collected here from patent publication US8178668B2, “2-aminopyridine kinase inhibitors” (OSI Pharmaceuticals, LLC, priority 2008, dated 2012).

Counter-ions that a name gives are not always drawn.

One assay addresses RON (human) (Homo sapiens, UniProt Q04912). As to the kind of experiment: RON kinase AlphaScreen assay (Km of ATP). The settings on record: ATP at Km; at least duplicate experiments. It is filed as biochemical. Summed up: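 Human RON phosphorylated biotinylated poly(Glu,Tyr) (200 ng/μL) at Km ATP in 50 mM HEPES pH 7.4, 12.5 mM MgCl2, 1% glycerol, 0.334 mM vanadate, 1% DMSO. Reaction ran 30 min at RT after enzyme addition. Product was detected by AlphaScreen with PT66 beads after 1 h.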

The target in another assay is MET (human) (Homo sapiens, UniProt P08581). As to the kind of experiment: MET kinase AlphaScreen assay (Km of ATP). The settings on record: ATP at Km; at least duplicate experiments. Type of assay: biochemical. The procedure, abridged: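 Biotinylated poly(Glu,Tyr) (200 ng/μL) phosphorylated by MET with ATP at an enzyme-optimized level, in 50 mM HEPES pH 7.4 with Mg2+/Mn2+ and vanadate, 1% DMSO. Reaction runs 60 min at RT. PT66 AlphaScreen donor/acceptor beads are added and signal is read after 1 h.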
MET (human), sequence (P08581 25-1390): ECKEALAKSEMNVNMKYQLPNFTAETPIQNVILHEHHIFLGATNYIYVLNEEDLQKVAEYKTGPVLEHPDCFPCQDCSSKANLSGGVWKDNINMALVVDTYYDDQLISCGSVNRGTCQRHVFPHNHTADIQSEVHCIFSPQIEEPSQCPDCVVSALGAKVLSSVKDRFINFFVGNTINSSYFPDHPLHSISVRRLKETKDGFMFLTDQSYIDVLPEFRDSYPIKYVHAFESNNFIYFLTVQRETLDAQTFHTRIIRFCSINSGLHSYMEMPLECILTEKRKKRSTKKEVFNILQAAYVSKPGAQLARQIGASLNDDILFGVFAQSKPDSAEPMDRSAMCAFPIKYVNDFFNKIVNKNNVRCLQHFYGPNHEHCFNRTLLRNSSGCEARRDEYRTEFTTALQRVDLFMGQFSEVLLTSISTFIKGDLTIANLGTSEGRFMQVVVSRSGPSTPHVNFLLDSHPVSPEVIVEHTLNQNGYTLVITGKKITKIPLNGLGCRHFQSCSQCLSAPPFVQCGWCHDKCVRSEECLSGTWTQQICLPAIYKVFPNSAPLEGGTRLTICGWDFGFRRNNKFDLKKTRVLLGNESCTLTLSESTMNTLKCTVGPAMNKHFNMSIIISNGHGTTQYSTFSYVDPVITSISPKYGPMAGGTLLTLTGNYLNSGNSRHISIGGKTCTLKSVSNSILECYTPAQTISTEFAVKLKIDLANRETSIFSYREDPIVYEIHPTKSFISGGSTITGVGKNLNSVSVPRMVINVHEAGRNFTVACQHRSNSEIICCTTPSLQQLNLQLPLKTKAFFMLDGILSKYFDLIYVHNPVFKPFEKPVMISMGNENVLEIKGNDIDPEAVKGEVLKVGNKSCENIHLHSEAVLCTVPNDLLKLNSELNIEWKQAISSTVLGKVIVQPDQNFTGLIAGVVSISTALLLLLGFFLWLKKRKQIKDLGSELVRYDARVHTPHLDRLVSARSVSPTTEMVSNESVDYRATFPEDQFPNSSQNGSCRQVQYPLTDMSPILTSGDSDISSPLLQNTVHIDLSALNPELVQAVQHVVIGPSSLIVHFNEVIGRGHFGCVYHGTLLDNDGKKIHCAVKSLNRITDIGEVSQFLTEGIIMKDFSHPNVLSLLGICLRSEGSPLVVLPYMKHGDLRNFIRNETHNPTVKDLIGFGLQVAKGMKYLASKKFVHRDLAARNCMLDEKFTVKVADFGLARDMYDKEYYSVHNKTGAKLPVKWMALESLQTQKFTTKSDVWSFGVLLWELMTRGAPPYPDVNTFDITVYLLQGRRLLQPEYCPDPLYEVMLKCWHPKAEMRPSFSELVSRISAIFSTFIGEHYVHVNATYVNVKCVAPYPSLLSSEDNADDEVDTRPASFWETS

RON (human), sequence (Q04912 25-1400): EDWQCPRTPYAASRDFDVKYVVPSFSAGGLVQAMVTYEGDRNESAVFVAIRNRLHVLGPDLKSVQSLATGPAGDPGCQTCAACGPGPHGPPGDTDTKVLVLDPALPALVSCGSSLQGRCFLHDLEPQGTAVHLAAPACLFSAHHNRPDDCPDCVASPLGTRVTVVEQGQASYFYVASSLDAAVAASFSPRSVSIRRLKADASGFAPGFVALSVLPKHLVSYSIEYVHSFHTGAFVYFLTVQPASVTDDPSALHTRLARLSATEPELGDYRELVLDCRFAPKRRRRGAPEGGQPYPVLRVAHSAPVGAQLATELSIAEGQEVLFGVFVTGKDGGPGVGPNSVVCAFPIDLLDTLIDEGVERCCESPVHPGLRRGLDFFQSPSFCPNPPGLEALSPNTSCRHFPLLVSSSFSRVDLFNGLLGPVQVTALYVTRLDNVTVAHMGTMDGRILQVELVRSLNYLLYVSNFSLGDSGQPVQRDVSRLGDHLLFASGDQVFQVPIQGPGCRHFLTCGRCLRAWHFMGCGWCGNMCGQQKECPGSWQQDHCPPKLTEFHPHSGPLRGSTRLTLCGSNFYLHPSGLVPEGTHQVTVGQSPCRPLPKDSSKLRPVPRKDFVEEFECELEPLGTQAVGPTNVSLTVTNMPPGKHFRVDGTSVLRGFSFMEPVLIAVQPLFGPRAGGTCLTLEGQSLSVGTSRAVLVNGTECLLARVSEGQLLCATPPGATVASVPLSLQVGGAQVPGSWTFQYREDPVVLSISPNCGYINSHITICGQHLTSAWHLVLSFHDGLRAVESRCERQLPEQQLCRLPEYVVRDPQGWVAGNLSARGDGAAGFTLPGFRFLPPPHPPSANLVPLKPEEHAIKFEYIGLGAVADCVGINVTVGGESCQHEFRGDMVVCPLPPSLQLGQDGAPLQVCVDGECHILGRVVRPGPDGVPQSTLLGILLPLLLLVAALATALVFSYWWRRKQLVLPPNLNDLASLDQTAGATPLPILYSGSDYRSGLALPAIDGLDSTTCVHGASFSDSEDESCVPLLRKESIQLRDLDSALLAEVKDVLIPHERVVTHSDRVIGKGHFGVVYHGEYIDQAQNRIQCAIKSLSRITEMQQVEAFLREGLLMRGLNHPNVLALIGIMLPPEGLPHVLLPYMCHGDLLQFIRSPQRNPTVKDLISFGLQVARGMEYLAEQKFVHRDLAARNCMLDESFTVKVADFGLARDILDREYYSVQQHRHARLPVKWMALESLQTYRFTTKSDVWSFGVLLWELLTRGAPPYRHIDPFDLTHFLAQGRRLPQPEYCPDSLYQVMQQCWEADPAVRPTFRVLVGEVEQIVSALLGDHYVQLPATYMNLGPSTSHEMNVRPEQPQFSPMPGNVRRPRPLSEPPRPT

As to `CN(C)C(=O)[C@@H]1C[C@H](n2cc(-c3cnc(N)c(-c4cc5c(Cl)ccc(F)c5cn4)c3)cn2)CN1` [Example 71, (2S,4S)-4-{4-[6-Amino-5-(5-chloro-8-fluoroisoquinolin-3-yl)-pyridin-3-yl]-pyrazol-1-yl}-pyrrolidine-2-carboxylic acid dimethylamide], the results for the IC50 at RON (human) and against MET (human) were 0.1 to 1 µM and at most 0.1 µM, respectively.

For `Nc1ncc(-c2cnn([C@@H]3CN[C@H](C(=O)N4CCOCC4)C3)c2)cc1-c1cc2c(Cl)ccc(F)c2cn1` [Example 72, ((2S,4S)-4-{4-[6-Amino-5-(5-chloro-8-fluoroisoquinolin-3-yl)-pyridin-3-yl]-pyrazol-1-yl}-pyrrolidin-2-yl)-morpholin-4-ylmethanone], the values for the IC50 against RON (human) and at MET (human) were 0.1 to 1 µM and at most 0.1 µM, respectively.

With `Nc1ncc(-c2cnn([C@@H]3CN[C@H](C(=O)N4CCCC4)C3)c2)cc1-c1cc2c(Cl)ccc(F)c2cn1` [Example 73, ((2S,4S)-4-{4-[6-Amino-5-(5-chloro-8-fluoroisoquinolin-3-yl)-pyridin-3-yl]-pyrazol-1-yl}-pyrrolidin-2-yl)-pyrrolidin-1-ylmethanone], the IC50 against RON (human) and against MET (human) was 0.1 to 1 µM throughout.

Regarding `COCCNC(=O)[C@@H]1C[C@H](n2cc(-c3cnc(N)c(-c4cc5c(Cl)ccc(F)c5cn4)c3)cn2)CN1` [Example 74, (2S,4S)-4-{4-[6-Amino-5-(5-chloro-8-fluoroisoquinolin-3-yl)-pyridin-3-yl]-pyrazol-1-yl}-pyrrolidine-2-carboxylic acid (2-methoxyethyl)-amide], the IC50 against RON (human) and against MET (human) was 1 to 20 µM in each case.

`Nc1ncc(-c2ccsc2)cc1-c1cc2c(Cl)ccc(F)c2cn1` [Example 76, 3-(5-Chloro-8-fluoroisoquinolin-3-yl)-5-thiophen-3-ylpyridin-2-amine]: the IC50 on RON (human) and against MET (human) was over 20 µM each time.

Take `Nc1ncc(-c2ccccc2)cc1-c1cc2c(Cl)ccc(F)c2cn1` [Example 77, 3-(5-Chloro-8-fluoroisoquinolin-3-yl)-5-phenylpyridin-2-amine]: the IC50 against RON (human) and against MET (human) was over 20 µM in each case.

On to `Nc1ncc(-c2cccnc2)cc1-c1cc2c(Cl)ccc(F)c2cn1` [Example 78, 5-(5-Chloro-8-fluoroisoquinolin-3-yl)-3,3′-bipyridin-6-amine], for which the IC50 against RON (human) and at MET (human) was 1 to 20 µM each time.

On to `Nc1ncc(-c2ccncc2)cc1-c1cc2c(Cl)ccc(F)c2cn1` [Example 79, 5-(5-Chloro-8-fluoroisoquinolin-3-yl)-3,4′-bipyridin-6-amine], for which the IC50 against RON (human) and on MET (human) was 1 to 20 µM in each case.

In the case of `CC(C)(C)OC(=O)N1CC=C(c2cnc(N)c(-c3cc4c(Cl)ccc(F)c4cn3)c2)CC1` [Example 80], the IC50 on RON (human) and at MET (human) was 1 to 20 µM each time.

As for `Nc1ccc(-c2cnc(N)c(-c3cc4c(Cl)ccc(F)c4cn3)c2)cn1` [Example 81, 5-(5-Chloro-8-fluoroisoquinolin-3-yl)-3,3′-bipyridine-6,6′-diamine], the IC50 against RON (human) and on MET (human) was 1 to 20 µM each time.

With `CC(=O)Nc1ccc(-c2cnc(N)c(-c3cc4c(Cl)ccc(F)c4cn3)c2)cc1` [Example 82, N-4-[6-Amino-5-(5-chloro-8-fluoroisoquinolin-3-yl)pyridin-3-yl]phenylacetamide], the IC50 is over 20 µM against RON (human) and 1 to 20 µM on MET (human).

Turning to `CCOC(=O)COc1ccc(-c2cnc(N)c(-c3cc4c(Cl)ccc(F)c4cn3)c2)cc1` [Example 83, Ethyl-[4-(6-amino-5-(5-chloro-8-fluoroisoquinolin-3-yl)pyridin-3-yl)phenoxy]acetate], the IC50 on RON (human) and against MET (human) was 1 to 20 µM throughout.

On to `Nc1ncc(-c2ccc(O)nc2)cc1-c1cc2c(Cl)ccc(F)c2cn1` [Example 84, 6′-Amino-5′-(5-chloro-8-fluoroisoquinolin-3-yl)-3,3′-bipyridin-6-ol], for which the IC50 against RON (human) and against MET (human) was 1 to 20 µM each time.

Regarding `Nc1ncc(-c2ccoc2)cc1-c1cc2c(Cl)ccc(F)c2cn1` [Example 85, 3-(5-Chloro-8-fluoroisoquinolin-3-yl)-5-furan-3-ylpyridin-2-amine], the IC50 at RON (human) is over 20 µM; on MET (human), 1 to 20 µM.

With `Nc1ncc(-c2ccco2)cc1-c1cc2c(Cl)ccc(F)c2cn1` [Example 86, 3-(5-Chloro-8-fluoroisoquinolin-3-yl)-5-furan-2-ylpyridin-2-amine], the results for the IC50 against RON (human) and against MET (human) were over 20 µM and 1 to 20 µM, respectively.

On to `Nc1ncc(-c2cn[nH]c2)cc1-c1cc2c(Cl)ccc(F)c2cn1` [Example 87, 3-(5-Chloro-8-fluoroisoquinolin-3-yl)-5-(1H-pyrazol-4-yl)pyridin-2-amine], for which the IC50 at RON (human) and against MET (human) was 1 to 20 µM each time.

Turning to `Nc1ncc(-c2ccc(NCCN3CCOCC3)nc2)cc1-c1cc2c(Cl)ccc(F)c2cn1` [Example 88, 3-(5-Chloro-8-fluoroisoquinolin-3-yl)-5-N6′-(2-morpholin-4-ylethyl)-3,3′-bipyridine-6,6′-diamine], the IC50 against RON (human) and at MET (human) was 1 to 20 µM each time.

Consider `Nc1ncc(-c2cc3ccccc3[nH]2)cc1-c1cc2c(Cl)ccc(F)c2cn1` [Example 89, 3-(5-Chloro-8-fluoroisoquinolin-3-yl)-5-(1H-indol-2-yl)pyridin-2-amine], for which the IC50 against RON (human) and on MET (human) was 1 to 20 µM throughout.

`COc1ccc(Cl)c2cc(-c3cc(-c4ccc(C(=O)O)cc4)cnc3N)ncc12` [Example 90, 4-[6-Amino-5-(5-chloro-8-methoxyisoquinolin-3-yl)-pyridin-3-yl]benzoic acid]: the 50% inhibitory concentration (IC50) on RON (human) and on MET (human) was 0.1 to 1 µM throughout.

Consider `COc1ccc(Cl)c2cc(-c3cc(-c4cccc(C(=O)O)c4)cnc3N)ncc12` [Example 91, 3-[6-Amino-5-(5-chloro-8-methoxyisoquinolin-3-yl)-pyridin-3-yl]benzoic acid], for which the IC50 on RON (human) and at MET (human) was over 20 µM throughout.

Consider `Nc1ncc(-c2cnn(C3CCNCC3)c2)cc1-c1cc2ccccc2o1` [Example 92, 3-Benzofuran-2-yl-5-(1-piperidin-4-yl-1H-pyrazol-4-yl)-pyridin-2-ylamine dihydrochloride], for which the results for the IC50 against RON (human) and at MET (human) were 1 to 20 µM and 0.1 to 1 µM, respectively.

Consider `Nc1ncc(-c2cnn(C3CCNCC3)c2)cc1-c1oc2ccccc2c1Cl` [Example 93, 3-(3-Chlorobenzofuran-2-yl)-5-(1-piperidin-4-yl-1H-pyrazol-4-yl)-pyridin-2-ylamine dihydrochloride], for which the IC50 on RON (human) and on MET (human) was 0.1 to 1 µM throughout.

On to `Cc1c(-c2cc(-c3cnn(C4CCNCC4)c3)cnc2N)oc2ccccc12` [Example 94, 3-(3-Methylbenzofuran-2-yl)-5-(1-piperidin-4-yl-1H-pyrazol-4-yl)pyridin-2-ylamine bishydrochloride], for which the IC50 was in the range of 1 to 20 µM against RON (human) and 0.1 to 1 µM on MET (human).

For `Nc1ncc(-c2cnn(C3CCNCC3)c2)cc1-c1oc2ccccc2c1Br` [Example 95, 3-(3-Bromobenzofuran-2-yl)-5-(1-piperidin-4-yl-1H-pyrazol-4-yl)-pyridin-2-ylamine trifluoroacetate], the IC50 against RON (human) and against MET (human) was 1 to 20 µM throughout.

Turning to `Nc1ncc(-c2cnn(C3CCNCC3)c2)cc1-c1oc2ccccc2c1-c1ccccc1` [Example 96, 3-(3-Phenylbenzofuran-2-yl)-5-(1-piperidin-4-yl-1H-pyrazol-4-yl)pyridine-2-ylamine], the IC50 at RON (human) and on MET (human) was 1 to 20 µM throughout.

As for `Nc1ncc(-c2cnn(C3CCNCC3)c2)cc1-c1oc2ccccc2c1-c1cccc(Cl)c1F` [Example 97, 3-[3-(3-Chloro-2-fluorophenyl)benzofuran-2-yl]-5-(1-piperidin-4-yl-1H-pyrazol-4-yl)pyridine-2-ylamine], the IC50 lay in the range of 1 to 20 µM on RON (human) and 0.1 to 1 µM at MET (human).

Take `Nc1ncc(-c2cnn(C3CCNCC3)c2)cc1-c1oc2ccccc2c1-c1cccc(F)c1F` [Example 98, 3-[3-(2,3-Difluorophenyl)benzofuran-2-yl]-5-(1-piperidin-4-yl-1H-pyrazol-4-yl)pyridine-2-ylamine]: the IC50 lay in the range of 1 to 20 µM on RON (human) and 0.1 to 1 µM on MET (human).

Take `Nc1ncc(-c2cnn([C@@H]3CCNC3)c2)cc1-c1cc2ccccc2o1` [Example 99, 3-Benzofuran-2-yl-5-((R)-1-pyrrolidin-3-yl-1H-pyrazol-4-yl)-pyridin-2-ylamine dihydrochloride]: the IC50 on RON (human) and at MET (human) was 0.1 to 1 µM each time.

Consider `Nc1ncc(-c2cnn([C@H]3CCNC3)c2)cc1-c1cc2ccccc2o1` [Example 100, 3-Benzofuran-2-yl-5-((S)-1-pyrrolidin-3-yl-1H-pyrazol-4-yl)-pyridin-2-ylamine dihydrochloride], for which the IC50 against RON (human) and at MET (human) was 0.1 to 1 µM throughout.

For `Cn1cc(-c2cnc(N)c(-c3cc4ccccc4o3)c2)cn1` [Example 101, 3-Benzofuran-2-yl-5-(1-methyl-1H-pyrazol-4-yl)-pyridin-2-ylamine bis-hydrochloride], the IC50 at RON (human) and on MET (human) was 1 to 20 µM in each case.

As to `CC(C)n1cc(-c2cnc(N)c(-c3cc4ccccc4o3)c2)cn1` [Example 102, 3-Benzofuran-2-yl-5-(1-isopropyl-1H-pyrazol-4-yl)-pyridin-2-ylamine bis-hydrochloride], the IC50 against RON (human) is 1 to 20 µM; on MET (human), 0.1 to 1 µM.

For `CN(C)C(=O)N1CCC(n2cc(-c3cnc(N)c(-c4cc5ccccc5o4)c3)cn2)CC1` [Example 103, 4-[4-(6-Amino-5-benzofuran-2-yl-pyridin-3-yl)-pyrazol-1-yl]-piperidine-1-carboxylic acid dimethylamide bis-hydrochloride], the values for the IC50 at RON (human) and against MET (human) were 1 to 20 µM and 0.1 to 1 µM, respectively.
